Data on eight molecules can be found in article PMC6271771, “4-Amino-substituted Benzenesulfonamides as Inhibitors of Human Carbonic Anhydrases” (Molecules, 2014).

Data set [1] has as its target T1, CA I (Homo sapiens, UniProt P00915).
T1 construct: made in house
Put plainly: Fluorescent thermal shift assay (FTSA), CA I. In kind it is binding.

For data set [2], the target named is T2, CA VI (Homo sapiens, UniProt P23280).
T2 construct: made in house
Put plainly: Fluorescent thermal shift assay (FTSA), CA VI. The data set is classed as binding.

Data set [3] deals with T3, CA VII (Homo sapiens, UniProt P43166).
T3 construct: made in house
T3 sequence (P43166 whole entry): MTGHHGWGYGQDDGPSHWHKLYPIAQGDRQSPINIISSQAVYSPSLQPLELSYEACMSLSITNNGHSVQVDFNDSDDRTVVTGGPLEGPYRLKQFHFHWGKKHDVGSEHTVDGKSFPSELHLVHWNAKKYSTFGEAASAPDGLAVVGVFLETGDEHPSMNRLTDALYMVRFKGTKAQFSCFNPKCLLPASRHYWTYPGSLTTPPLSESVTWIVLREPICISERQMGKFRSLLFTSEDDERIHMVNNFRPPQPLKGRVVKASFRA
Put plainly: Fluorescent thermal shift assay (FTSA), CA VII. In kind it is binding.

The target of data set [4] is T2, CA VI. On the set-up: method as in PMID 24300919, PMID 17228881. The conditions noted are these: read-out: inhibition constant Ki for CA VI; previously reported; cited from earlier work.
Data set [5] deals with T4, CA XIII (Homo sapiens, UniProt Q8N1Q1).
T4 construct: made in house
T4 sequence (Q8N1Q1 whole entry): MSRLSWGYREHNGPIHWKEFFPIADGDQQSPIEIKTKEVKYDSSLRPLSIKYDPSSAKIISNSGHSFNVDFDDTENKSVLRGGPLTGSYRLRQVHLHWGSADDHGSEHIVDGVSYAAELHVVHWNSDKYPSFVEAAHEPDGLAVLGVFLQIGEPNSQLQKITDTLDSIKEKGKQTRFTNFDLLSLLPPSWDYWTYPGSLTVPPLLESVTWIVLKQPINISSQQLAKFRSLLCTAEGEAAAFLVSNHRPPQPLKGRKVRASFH
As to the kind of experiment: Fluorescent thermal shift assay (FTSA), CA XIII. The data set is classed as binding.

Data set [6] addresses T2, CA VI. On the set-up: method as in Murakami and Sly 35. The conditions noted are these: read-out: Ki for CA VI; ref Murakami and Sly 35; cited from earlier work.
In data set [7] the target is T5, CA II (Homo sapiens, UniProt P00918).
T5 construct: made in house
Put plainly: Fluorescent thermal shift assay (FTSA), CA II. The data set is classed as binding. As to conditions: pH 7.0, 37 °C.

For data set [8], the target named is T6, CA XII (Homo sapiens, UniProt O43570).
T6 construct: made in house
T6 sequence (O43570 30-289 limits assumed): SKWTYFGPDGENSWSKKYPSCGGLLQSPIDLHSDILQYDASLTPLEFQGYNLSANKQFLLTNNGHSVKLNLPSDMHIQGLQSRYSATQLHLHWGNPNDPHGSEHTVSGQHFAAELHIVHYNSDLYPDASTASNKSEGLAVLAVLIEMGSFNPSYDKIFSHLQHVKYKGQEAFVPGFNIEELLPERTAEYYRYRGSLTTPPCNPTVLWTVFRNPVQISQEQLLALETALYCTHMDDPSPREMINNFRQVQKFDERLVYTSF
As to the kind of experiment: Fluorescent thermal shift assay (FTSA), CA XII. The data set is classed as binding.

Data set [9] has as its target T1, CA I. As to the kind of experiment: Isothermal titration calorimetry (ITC), CA I. In kind it is binding. Here is the method: (§1) The synthesized compounds could be arranged into two groups. The first group of compounds is the N-aryl-β-alanine derivatives containing the primary sulfonamide group 3–25 (except in the compound 4 which is a tertiary sulfonamide) and the second group of compounds—diazobenzenesulfonamides 26–33. Compounds such as benzenesulfonamide (BSA) and acetazolamide (AZM) were used as controls. The binding affinity of these compounds to six CA isoforms I, II, VI, VII, XII, and XIII was determined by the fluorescent thermal shift assay (FTSA) and confirmed for two key compounds 18 and 31 by the isothermal titration calorimetry (ITC).
(§2) Isothermal titration calorimetry (ITC) experiments were performed using VP-ITC instrument (Microcal, Inc., Northampton, MA, USA) with 5–10 µM protein solution in the cell and 50–100 µM of the ligand solution in the syringe. A typical experiment consisted of 25 injections (10 µL each) within 3 min intervals. Experiments were performed at 37 °C in a 50 mM sodium phosphate buffer containing 100 mM NaCl at pH 7.0, with a final DMSO concentration of 2%, equal in the syringe and the cell.
Background: In ITC the heat of successive injections is recorded.

Data set [10] concerns the target T4, CA XIII. As to the kind of experiment: Isothermal titration calorimetry (ITC), CA XIII. The data set is classed as binding. Here is the method: as §1, §2
The target in data set [11] is T5, CA II. As to the kind of experiment: Isothermal titration calorimetry (ITC), CA II. In kind it is binding. The conditions noted are these: for K (ITC titration of CA II) / ΔH (ITC titration of CA II): 37 °C, 50 mM phosphate buffer (pH 7.0), 100 mM NaCl, 2% DMSO, Figure 2. Here is the method: as §1, §2
The target in data set [12] is T3, CA VII. As to the kind of experiment: Isothermal titration calorimetry (ITC), CA VII. The data set is classed as binding. Here is the method: as §1, §2
Data set [13] addresses T6, CA XII. As to the kind of experiment: Isothermal titration calorimetry (ITC), CA XII. The conditions noted are these: pH 7.0, 37 °C, read-out: Kd for CA XII by isothermal titration calorimetry (values in the brackets). The data set is classed as binding. Here is the method: as §1, §2
[14] abbreviates: FTSA, pH 7.0, 37 °C, read-out: Compound Dissociation Constants Kd for CA XIII.
Setting [15] is: read-out: Compound Dissociation Constants Kd for CA II.
Where [16] appears, read: FTSA, pH 7.0, 37 °C, read-out: Compound Dissociation Constants Kd for CA I.
Where [17] appears, read: FTSA, pH 7.0, 37 °C, read-out: Compound Dissociation Constants Kd for CA VI.
Where [18] appears, read: FTSA, pH 7.0, 37 °C, read-out: Compound Dissociation Constants Kd for CA VII.
Setting [19] is: FTSA, pH 7.0, 37 °C, read-out: Compound Dissociation Constants Kd for CA XII.

Each structure is given as a SMILES string. pKd, pKi: −log10 of the molar value. “And” between values parts separate entries of the source, which are not always exact repeats. Identical values can stand only once. Like-named read-outs stand apart in the source and are kept apart here.

T1 sequence (P00915 whole entry): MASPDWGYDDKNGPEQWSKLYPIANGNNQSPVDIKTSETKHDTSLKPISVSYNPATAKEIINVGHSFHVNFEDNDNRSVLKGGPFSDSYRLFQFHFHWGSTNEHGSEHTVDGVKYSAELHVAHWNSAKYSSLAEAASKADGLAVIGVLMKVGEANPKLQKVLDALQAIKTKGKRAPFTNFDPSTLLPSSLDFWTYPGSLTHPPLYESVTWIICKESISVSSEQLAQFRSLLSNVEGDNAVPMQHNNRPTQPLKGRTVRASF
T2 sequence (P23280 18-308): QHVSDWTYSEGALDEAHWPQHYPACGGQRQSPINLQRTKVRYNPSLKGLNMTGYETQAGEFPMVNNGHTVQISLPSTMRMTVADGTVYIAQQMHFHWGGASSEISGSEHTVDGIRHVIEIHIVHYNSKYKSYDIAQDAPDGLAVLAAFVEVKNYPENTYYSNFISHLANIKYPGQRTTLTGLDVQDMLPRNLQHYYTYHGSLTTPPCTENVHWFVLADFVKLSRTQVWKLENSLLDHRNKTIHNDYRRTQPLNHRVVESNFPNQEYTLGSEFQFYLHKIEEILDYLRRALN

For the molecule `Nc1ccc(S(N)(=O)=O)cc1` [Compound 1, 4-Aminobenzene-1-sulfonamide, reference compound], in data set [1] (Kd (FTSA) versus Ki of ref 35), the “difference between own Kd and Ki of Murakami and Sly, CA I” value is listed as 2 times. The results for the pKd in [2], in data set [3] and in data set [5] (setting [14]) were 4.25, 4.30 and 4.00, respectively. Besides, the pKi (usually the Ki on a negative log10 scale, so that one unit is a factor of ten) in data set [4] was 6.05; in data set [6] it was 5.00.

In the case of `NS(=O)(=O)c1ccc(NCCC(=O)N/N=C/c2ccc(Br)cc2)cc1` [Compound 14, 4-[(2-{N'-[(4-Bromphenyl)methylidene]hydrazinecarbonyl}ethyl)amino]benzene-1-sulfonamide], the melting point – broadly, the temperature, or range, at which the solid turns liquid – lay in the range of 218 to 219 °C. Also, the pKd in [7] (setting [15]) is 5.74. In data set [1] (setting [16]), the pKd is 4.90. In addition, in data set [2] (setting [17]), the pKd is 5.15. The pKd in [3] (setting [18]) is 5.23. Moreover, the pKd in data set [8] (setting [19]) was 4.50. The pKd in [5] (setting [14]) was 5.15.

`NS(=O)(=O)c1ccc(NCCC(=O)NN=Cc2ccc(Cl)cc2)cc1` [Compound 15, 4-[(2-{N'-[(4-Chlorophenyl)methylidene]hydrazinecarbonyl}ethyl]amino)benzene-1-sulfonamide] gave a melting point of 226 to 227 °C. For the same molecule, the pKd in data set [7] (setting [15]) is 5.70. Also, in data set [1] (setting [16]), the pKd was 4.90. Also, the pKd in data set [2] (setting [17]) was 5.17. Besides, the pKd in data set [3] (setting [18]) is 4.90. The pKd in [8] (setting [19]) was 4.48. Moreover, the pKd in data set [5] (setting [14]) is 5.08.

Turning to `CN(C)c1ccc(/C=N/NC(=O)CCNc2ccc(S(N)(=O)=O)cc2)cc1` [Compound 16], the melting point is 179 to 180.5 °C. For the same molecule, the pKd in data set [7] (setting [15]) is 5.08. In addition, in data set [1] (setting [16]), the pKd is 4.43. Besides, the pKd in [2] (setting [17]) was 4.30. The pKd in data set [3] (setting [18]) was 4.60. For the same molecule, the pKd in data set [8] (setting [19]) was 4.48. The pKd in [5] (setting [14]) is 4.25.

In turn, `NS(=O)(=O)c1ccc(NCCC(=O)NN=Cc2ccc([N+](=O)[O-])cc2)cc1` [Compound 17, 4-[(2-{N′-[(4-Nitrophenyl)methylidene]hydrazinecarbonyl]ethyl)amino]benzene-1-sulfonamide] yielded a melting point of 227 to 228.5 °C. The pKd in data set [7] (setting [15]) was 5.44. Moreover, the pKd in [1] (setting [16]) was 4.70. The pKd in data set [2] (setting [17]) is 4.60. In addition, the pKd in data set [3] (setting [18]) is 4.60. Also, the pKd in data set [8] (setting [19]) is 4.17. For the same molecule, in [5] (setting [14]), the pKd is 4.30.

Regarding `Cc1cc(C)n(C(=O)CCNc2ccc(S(N)(=O)=O)cc2)n1` [Compound 18, 4-{[3-(3,5-Dimethyl-1H-pyrazol-1-yl)-3-oxopropyl]amino}benzene-1-sulfonamide], the pKd in data set [7] (setting [15]) is 6.17 and 6.18; in data set [1] (setting [16]), 5.78; in [2] (setting [17]), 4.57; in [9] (ITC, pH 7.0, 37 °C, read-out: Kd for CA I by isothermal titration calorimetry (values in the brackets)), 6.12; in [10] (ITC, pH 7.0, 37 °C, read-out: Kd for CA XIII by isothermal titration calorimetry (values in the brackets)), 6.00; in [3] (setting [18]), 5.48. In addition, the pKd in [8] (setting [19]) was 4.84; in [11] (ITC, pH 7.0, 37 °C, read-out: Kd for CA II by isothermal titration calorimetry (values in the brackets)) it was 6.34; in [12] (ITC, pH 7.0, 37 °C, read-out: Kd for CA VII by isothermal titration calorimetry (values in the brackets)) it was 6.05; in data set [5] (setting [14]), 5.40. Moreover, in data set [11], the “K (ITC titration of CA II)” value is recorded as 2.2E6. In addition, the “ΔH (ITC titration of CA II)” value in [11] was -9320.

Take `NS(=O)(=O)c1ccc(NCCc2n[nH]c(=S)n2-c2ccccc2)cc1` [Compound 23, 4-{[2-(4-Phenyl-5-sulfanylidene-4,5-dihydro-1H-1,2,4-triazol-3-yl)ethyl]amino}benzene-1-sulfonamide]: the melting point fell in the range of 253 to 254 °C. Besides, the pKd in [7] (setting [15]) was 5.70. Also, in data set [1] (setting [16]), the pKd is 5.00. Besides, in [2] (setting [17]), the pKd was 4.95. Moreover, in data set [3] (setting [18]), the pKd was 5.18. Further, the pKd in data set [8] (setting [19]) is 5.18. Moreover, the pKd in [5] (setting [14]) was 5.00.

On to `NS(=O)(=O)c1ccc(/N=N/N2CCCCCC2)cc1` [Compound 31], for which the pKd in data set [13] is 6.66; in data set [7] (Compound Dissociation Constants Kd for CA II), 7.36; in data set [1], 8.22; in [2] it was 4.84; in data set [9] it was 7.66; in data set [10] it was 7.11. In addition, the pKd in data set [3] is 6.90; in [8], 6.17; in data set [11] it was 7.40; in data set [12], 6.72; in [5], 7.65. For the same molecule, the “K (ITC titration of CA II)” value in data set [11] turned out to be 2.5E7. In data set [11], the “ΔH (ITC titration of CA II)” value is recorded as -9640.
